# Assay results taken from patent publication US20140142150A1, “TREATING NEUROPSYCHIATRIC DISORDERS” (THE GENERAL HOSPITAL CORPORATION, priority 2011, published 2014).
# Tested on: stable schizophrenia patients
# Assay: placebo controlled add-on trial of once-weekly D-cycloserine, negative symptoms by modified SANS total score
# Format: in vivo, human
# Description: Study procedures were approved by the Partners HealthCare and Massachusetts Department of Mental Health institutional review boards, and all participants provided written informed consent. A diagnosis of schizophrenia was confirmed by a consensus diagnostic conference based on results from a clinical diagnostic interview, chart review, and review of clinical history with treating physicians.
# Subjects were administered the Positive and Negative Syndrome Scale (PANSS) (Kay et al., Schizophrenia Bulletin 13:261-276) to assess symptom severity by trained raters who were blind to genotype.
# DNA was obtained from blood samples and genotyped for variants across two genes: G72 and GCPII. Specific variants were selected on the basis of (1) common occurrence in the general population (minor allele frequency >0.2), (2) coding for non-synonymous mutations in amino acid sequences, and (3) previous support in the literature for an association with schizophrenia. No additional genetic variants were studied. Genotyping was conducted using the MASSARRAY® platform (Sequenom, San Diego, Calif.) using the nucleotide primers shown in Table 2.
# Negative symptoms were measured by the modified SANS total score at baseline and at week 8, seven days after the last dose of study drug. […] The sample was subsequently enlarged to 45 subjects and G72 genotype was examined as a predictor of response. G72 is the most-validated schizophrenia risk gene that influences activity at the glycine site of the NMDA receptor complex. One G72 SNP, rs3916971 (M21), that achieved significant association with schizophrenia risk in a meta-analysis performed by “SzGene” (Bertram, Schizophr Bull. 34:806-12, 2008) was examined. In the enlarged sample of 45 subjects, the effect size of D-cycloserine improvement of negative symptoms compared to placebo increased to 0.9 and G72 genotype produced a drug x genotype effect size of 0.7. Within subjects receiving D-cycloserine, G72 genotype predicted response with an effect size of 0.9 and within subjects with the TT genotype, the effect size of D-cycloserine improvement of negative symptoms vs. placebo was 2.3 (FIG. 1).
structure (smiles),measurement,setting,value
N[C@@H]1CONC1=O [D-cycloserine],drug x genotype effect size (G72 rs3916971 genotype),enlarged sample of 45 subjects,0.7
same,effect size of improvement of negative symptoms compared to placebo,"enlarged sample of 45 subjects, once-weekly 50 mg",0.9
same,"improvement of negative symptoms (modified SANS total score), effect size","once-weekly 50 mg add-on to antipsychotics, 38 stable schizophrenia patients, baseline to week 8, vs placebo",0.7
same,patients exhibiting a 20% or greater improvement in SANS total score,"once-weekly 50 mg, 38 patients, week 8 (placebo group 11%)",30%
same,"G72 genotype prediction of response, effect size","within subjects receiving D-cycloserine, enlarged sample",0.9
same,effect size of improvement of negative symptoms vs. placebo,within subjects with the TT genotype at G72 rs3916971 (FIG. 1),2.3
